Where two headings read alike, the source gives them in different places.
Columns and labels:
[1] = target: Glucocorticoid Receptor (GR) (Homo sapiens (Human), UniProt P04150); assay: LanthaScreen TR-FRET GR Competitive Binding Assay (cell free)
[2] = system: GR activation in 293/PRLR/GRE-Luc cells (HEK293/9xUAS-Luc2P/pBind-GR/PRLR-HA high cells); assay: GR co-activator luciferase reporter cell based assay in 293/PRLR/GRE-Luc cells; parameters: species or system human; details: for Emax / EC50: Homo sapiens; for Emax: HEK293, read-out: Activation (fold activation relative to Budesonide) in HEK293/9xUAS-Luc2P/pBind-GR/PRLR-HA high cells
Excerpt: Bioassays described herein were used to assess the efficacy of free steroids and anti-PRLR-ncADCs. In one example, the bioassay assessed the activity of steroids, after internalization of a site-specific anti-PRLR-GC steroid ADC into cells, to bind to pBIND-GR and subsequent luciferase reporter activation. […] Then such stable cell line was further transfected with a chimeric receptor consisting of a GR ligand binding domain fused to the yeast Gal4 DNA binding domain (pBind-GR, Promega Cat #E1581), and a Gal4 upstream activator sequence (9×Gal4UAS-Luc2P) that drives luciferase gene expression.
(§1) For this assay, 20,000 cells were seeded in 96-well plates in media containing DMEM supplemented with 10% FBS and pencillin/streptomycin (complete media) and grown overnight at 37° C. in 5% CO2. […] Luciferase activity was determined by addition of OneGlo™ reagent (Promega, Cat #E6130) and relative light units (RLUs) were measured on a Victor luminometer (Perkin Elmer). The EC50 values were determined from a four-parameter logistic equation over a 10 point response curve using GraphPad Prism.
as §1, with “One-Glo™” for “OneGlo™”, “10-point” for “10 point”, “Prism. […] Minimal activation in this assay is defined as less than 10% of the maximal activation measured with the free payload.” for “Prism.”

[3] = HEK293, 72 hours of incubation, read-out: HEK293/9xUAS-Luc2P/pBind-GR/PRLR-HA high cells EC50

Sequence of Glucocorticoid Receptor (GR) (P04150 524-758): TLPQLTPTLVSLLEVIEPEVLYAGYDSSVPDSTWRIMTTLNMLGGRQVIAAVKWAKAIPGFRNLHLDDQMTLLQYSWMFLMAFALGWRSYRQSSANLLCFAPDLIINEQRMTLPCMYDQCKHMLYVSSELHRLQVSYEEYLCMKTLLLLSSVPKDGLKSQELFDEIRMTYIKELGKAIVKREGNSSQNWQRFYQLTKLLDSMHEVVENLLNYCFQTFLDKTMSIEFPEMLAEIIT

| Compound | IC50 [1] | Emax ([2]; 72 hours of incubation) | EC50 [2, 3] | Activation (fold activation relative to Budesonide) in HEK293/9xUAS-Luc2P/pBind-GR/PRLR-HA high cells ([2]; 72 hours of incubation) | Fold Activation ([2]; 293/PRLR/GRE-Luc cells, 72 hours) | EC50 ([2]; HEK293, 72 h, read-out: EC50) |
| --- | --- | --- | --- | --- | --- | --- |
| CCCC1O[C@@H]2C[C@H]3[C@@H]4C[C@H](F)C5=CC(=O)C=C[C@]5(C)[C@@]4(F)[C@@H](O)C[C@]3(C)[C@]2(C(=O)COc2ccc(N)cc2)O1 (stereo partly drawn) [11-12 R/S, (1S,2S,4R,8S,9S,11S,12R,13S,19S)-8-[2-(4-Aminophenoxy)acetyl]-12,19-difluoro-11-hydroxy-9,13-dimethyl-6-propyl-5,7-dioxapentacyclo[10.8.0.0^2,90.0^4,80.0^13,18]icosa-14,17-dien-16-one] | 10 to 100 nM | > 75% | < 10 nM | – | – | – |
| CCC[C@@H]1O[C@@H]2C[C@H]3[C@@H]4CCC5=CC(=O)C=C[C@]5(C)[C@H]4[C@@H](O)C[C@]3(C)[C@]2(C(=O)COc2ccc(NC(C)=O)cc2)O1 [11-11 R/S, N-(4-{2-[(1S,2S,4R,6R,8S,9S,11S,12S,13R)-11-Hydroxy-9,13-dimethyl-16-oxo-6-propyl-5,7-dioxapentacyclo[10.8.0.0^2,90.0^4,80.0^13,18]icosa-14,17-dien-8-yl]-2-oxoethoxy}phenyl)acetamide] | < 10 nM | < 20% | > 100 nM | – | – | – |
| C[C@]12C=CC(=O)C=C1CC[C@@H]1[C@@H]2[C@@H](O)C[C@@]2(C)[C@H]1C[C@H]1O[C@H](c3ccc(N)cc3)O[C@]12C(=O)CO [7-1 S, (1S,2S,4R,6S,8S,9S,11S,12S,13R)-6-(4 Aminophenyl)-11-hydroxy-8-(2-hydroxyacetyl)-9,13-dimethyl-5,7-dioxapentacyclo[10.8.0.0^2,90.0^4,80.0^13,18]icosa-14,17-dien-16-one] | < 10 nM | 20 to 75% | > 100 nM | – | – | – |
| CC(C)C(=O)OCC(=O)[C@@]12OC(Cc3ccc(N)cc3)O[C@@H]1C[C@H]1[C@@H]3CCC4=CC(=O)C=C[C@]4(C)[C@H]3[C@@H](O)C[C@@]12C (stereo partly drawn) [8-2 R/S, 2[(1S,2S,4R,8S,9S,11S,12S,13R)-6[(4-Aminophenyl)methyl]-11-hydroxy-9,13-dimethyl-16-oxo-5,7-dioxapentacyclo[10.8.0.0^2,90.0^4,80.0^13,18]icosa-14,17-dien-8-yl]-2-oxoethyl 2-methylpropanoate] | < 10 nM | < 20% | > 100 nM | – | – | – |
| CCCC1O[C@@H]2C[C@H]3[C@@H]4C[C@H](F)C5=CC(=O)C=C[C@]5(C)[C@@]4(F)[C@@H](O)C[C@]3(C)[C@]2(C(=O)CN(C)Cc2ccc(OC)cc2)O1 (stereo partly drawn) [11-20 R/S, (1S,2S,4R,8S,9S,11S,12R,13S,19S)-12,19-Difluoro-11-hydroxy-8-(2-{[(4-methoxyphenyl)methyl](methyl)amino}acetyl)-9,13-dimethyl-6-propyl-5,7-dioxapentacyclo[10.8.0.0^2,90.0^4,80.0^13,18]icosa-14,17-dien-16-one; trifluoroacetic acid] | < 10 nM | – | > 100 nM | no activation | – | – |
| C[C@]12C=CC(=O)C=C1CC[C@@H]1[C@@H]2[C@@H](O)C[C@@]2(C)[C@H]1C[C@H]1OC(Cc3ccc(N)cc3)O[C@]12C(=O)CO (stereo partly drawn) [7-2 R/S, (1S,2S,4R,8S,9S,11S,12S,13R)-6[(4-Aminophenyl)methyl]-11-hydroxy-8-(2-hydroxyacetyl)-9,13-dimethyl-5,7-dioxapentacyclo[10.8.0.0^2,90.0^4,80.0^13,18]icosa-14,17-dien-16-one] | < 10 nM | < 20% | < 10 nM | – | Full | 10 to 100 nM |
